According to patent publication US12441730B2, “PRMT5 inhibitors” (Merck Sharp & Dohme LLC, priority 2019, dated 2025):
Where two headings read alike, the source gives them in different places.

Legend:
[1] = target: T1, Full-length (FL)-PRMT5-MEP50 enzyme complex (Homo sapiens, UniProt O14744); test: PRMT5-MEP50 Enzyme Methylation Assay (Version A); type: biochemical
T1 construct: Full-length (FL)-PRMT5-MEP50 enzyme complex (recombinant proteins from baculovirus-transfected Sf21 cells: FL-PRMT5; MW=73837 kDa and FL-MEP50; MW=38614); made in house; host or cells: baculovirus-transfected Sf21 cells
Summary of the method: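 Compound was pre-incubated with enzyme for 60 min, then reacted 150 min at 37° C. at final 1.0 nM PRMT5-MEP50, 15 μM SAM and 75 nM biotinylated H4R3(Me1) peptide, in 50 mM Bicine pH 8.0 with 1% DMSO. SAMDI mass-spectrometric readout of Me1→Me2 conversion. EC50 from 4- or 7-parameter regression.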

[2] = system: symmetric dimethylation of arginine (SDMA) of PRMT5 substrates in MCF-7 cells; test: PRMT5 Cell Target Engagement (TE) Assay; type: cell-based; conditions: Homo sapiens, MCF7, 72 h, 3 days treatment, SDMA high content imaging
Summary of the method: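 Readout is single-cell nuclear symmetric-dimethylarginine immunofluorescence (Alexa488), normalized to DMSO-treated cells. Compounds were applied to MCF-7 cells for 3 days at 37 °C, top concentration 10000 nM in 1:3 steps over ten points; curves fitted with 4-parameter robust fit.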

[3] = second value of 7 parameter biphasic fit, read-out: Enzyme Methylation Assay Version A (EC50 2)
[4] = single EC50 = 4 parameter single site sigmoidal fit, EC50 1 = first value of 7 parameter biphasic fit, read-out: Enzyme Methylation Assay Version A (EC50 or EC50 1)

T1 sequence (O14744 whole entry): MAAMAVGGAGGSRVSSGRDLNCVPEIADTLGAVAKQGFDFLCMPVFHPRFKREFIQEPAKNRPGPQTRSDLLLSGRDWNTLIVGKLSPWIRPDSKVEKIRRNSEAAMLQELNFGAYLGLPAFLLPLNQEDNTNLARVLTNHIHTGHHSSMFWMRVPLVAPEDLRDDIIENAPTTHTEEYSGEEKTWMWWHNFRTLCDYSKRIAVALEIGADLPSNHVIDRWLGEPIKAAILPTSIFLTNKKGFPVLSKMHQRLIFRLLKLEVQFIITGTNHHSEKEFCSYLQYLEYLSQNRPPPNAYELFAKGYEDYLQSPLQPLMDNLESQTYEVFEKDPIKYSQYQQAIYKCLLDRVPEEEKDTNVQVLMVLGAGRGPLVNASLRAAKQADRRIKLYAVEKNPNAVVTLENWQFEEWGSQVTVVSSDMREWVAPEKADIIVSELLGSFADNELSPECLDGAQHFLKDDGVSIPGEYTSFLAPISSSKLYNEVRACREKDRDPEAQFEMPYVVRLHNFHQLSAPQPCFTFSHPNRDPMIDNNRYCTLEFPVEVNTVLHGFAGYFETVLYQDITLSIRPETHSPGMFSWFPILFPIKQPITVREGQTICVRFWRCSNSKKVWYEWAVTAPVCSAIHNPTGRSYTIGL
T1 sequence (Q9BQA1 whole entry partner): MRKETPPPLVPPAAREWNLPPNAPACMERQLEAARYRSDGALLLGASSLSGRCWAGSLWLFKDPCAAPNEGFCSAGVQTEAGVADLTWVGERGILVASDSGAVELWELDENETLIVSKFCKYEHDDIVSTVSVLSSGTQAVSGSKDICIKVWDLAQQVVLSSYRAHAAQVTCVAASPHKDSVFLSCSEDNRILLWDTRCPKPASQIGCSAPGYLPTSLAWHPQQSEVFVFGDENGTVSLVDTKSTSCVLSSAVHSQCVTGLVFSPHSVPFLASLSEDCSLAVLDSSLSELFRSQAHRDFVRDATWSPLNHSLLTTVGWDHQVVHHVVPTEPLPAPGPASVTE

Row | EC50 [1, 3] [nM] | EC50 [1, 4] [nM] | EC50 [2] [nM] | Compound
1 | ≥ 100000 | 479 | ≥ 10000 | O=C(c1cn2ncnc2cn1)N1CC[C@]2(Cc3ccccc3CN2)[C@H](O)C1 [Example 194, [(3R,3′R)-3′-hydroxy-1,4-dihydro-1′H,2H-spiro[isoquinoline-3,4′-piperidin]-1′-yl]([1,2,d]triazolo[1,5-a]pyrazin-6-yl)methanone]
2 | – | 15700 | ≥ 10000 | O=C(c1cnc2ncnn2c1)N1CC[C@]2(Cc3ccccc3CN2)[C@H](O)C1 [Example 195, [(3R,3′R)-3′-hydroxy-1,4-dihydro-1′H,2H-spiro[isoquinoline-3,4′-piperidin]-1′-yl]([1,2,d]triazolo[1,5-a]pyrimidin-6-yl)methanone]
3 | 6310 | 15.3 | 409 | Cc1ccc(C(=O)N2CC[C@]3(Cc4ccccc4CN3)[C@H](O)C2)c(OCCO)n1 [Example 196, [(3R,3′R)-3′-hydroxy-1,4-dihydro-1′H,2H-spiro[isoquinoline-3,4′-piperidin]-1′-yl][2-(2-hydroxyethoxy)-6-methyl-3-pyridinyl]methanone]
4 | 16000 | 14.2 | 1310 | Cc1ccc(C(=O)N2CC[C@]3(Cc4ccccc4CN3)[C@H](O)C2)c(Br)n1 [Example 197, (2-bromo-6-methyl-3-pyridinyl)[(3R,3′R)-3′-hydroxy-1,4-dihydro-1′H,2H-spiro[isoquinoline-3,4′-piperidin]-1′-yl]methanone]
5 | 16000 | 19.3 | 1070 | CNc1nc(C)ccc1C(=O)N1CC[C@]2(Cc3ccccc3CN2)[C@H](O)C1 [Example 198, [(3R,3′R)-3′-hydroxy-1,4-dihydro-1′H,2H-spiro[isoquinoline-3,4′-piperidin]-1′-yl][6-methyl-2-(methylamino)-3-pyridinyl]methanone]
6 | 7240 | 4.08 | 503 | Cc1ccc(C(=O)N2CC[C@]3(Cc4ccccc4CN3)[C@H](O)C2)c(C2CC2)n1 [Example 199, (2-cyclopropyl-6-methyl-3-pyridinyl)[(3R,3′R)-3′-hydroxy-1,4-dihydro-1′H,2H-spiro[isoquinoline-3,4′-piperidin]-1′-yl]methanone]
7 | 3020 | 6.73 | 214 | CCOc1nc(C)ccc1C(=O)N1CC[C@]2(Cc3ccccc3CN2)[C@H](O)C1 [Example 200, (2-ethoxy-6-methyl-3-pyridinyl)[(3R,3′R)-3′-hydroxy-1,4-dihydro-1′H,2H-spiro[isoquinoline-3,4′-piperidin]-1′-yl]methanone]
8 | 1020 | 1.36 | 168 | CCCOc1nc(C)ccc1C(=O)N1CC[C@]2(Cc3ccccc3CN2)[C@H](O)C1 [Example 201, [(3R,3′R)-3′-hydroxy-1,4-dihydro-1′H,2H-spiro[isoquinoline-3,4′-piperidin]-1′-yl](6-methyl-2-propoxy-3-pyridinyl)methanone]
9 | 16200 | 26.3 | 795 | O=C(c1cn2cccc(F)c2n1)N1CC[C@]2(Cc3ccccc3CN2)[C@H](O)C1 [Example 202, (8-fluoroimidazo[1,2-a]pyridin-2-yl)[(3R,3′R)-3′-hydroxy-1,4-dihydro-1′H,2H-spiro[isoquinoline-3,4′-piperidin]-1′-yl]methanone]
10 | 292 | 0.846 | 25.7 | Cc1cc(I)c2nc(C(=O)N3CC[C@]4(Cc5ccccc5CN4)[C@H](O)C3)cn2c1 [Example 203, [(3R,3′R)-3′-hydroxy-1,4-dihydro-1′H,2H-spiro[isoquinoline-3,4′-piperidin]-1′-yl](8-iodo-6-methylimidazo[1,2-a]pyridin-2-yl)methanone]
11 | 14600 | 21.9 | 1590 | Cc1ccc(C(=O)N2CC[C@]3(Cc4ccccc4CN3)[C@H](O)C2)c(Cl)n1 [Example 204, (2-chloro-6-methyl-3-pyridinyl)[(3R,3′R)-3′-hydroxy-1,4-dihydro-1′H,2H-spiro[isoquinoline-3,4′-piperidin]-1′-yl]methanone]
12 | 2750 | 2.8 | 324 | COc1nc(C)ccc1C(=O)N1CC[C@]2(Cc3ccccc3CN2)[C@H](O)C1 [Example 205, [(3R,3′R)-3′-hydroxy-1,4-dihydro-1′H,2H-spiro[isoquinoline-3,4′-piperidin]-1′-yl](2-methoxy-6-methyl-3-pyridinyl)methanone]
13 | 7240 | 4.33 | 363 | O=C(c1cn2cccc(Cl)c2n1)N1CC[C@]2(Cc3ccccc3CN2)[C@H](O)C1 [Example 206, (8-chloroimidazo[1,2-a]pyridin-2-yl)[(3R,3′R)-3′-hydroxy-1,4-dihydro-1′H,2H-spiro[isoquinoline-3,4′-piperidin]-1′-yl]methanone]
14 | 288 | 0.382 | 27.6 | Cc1cc(Cl)c2nc(C(=O)N3CC[C@]4(Cc5ccccc5CN4)[C@H](O)C3)cn2c1 [Example 207, (8-chloro-6-methylimidazo[1,2-a]pyridin-2-yl)[(3R,3′R)-3′-hydroxy-1,4-dihydro-1′H,2H-spiro[isoquinoline-3,4′-piperidin]-1′-yl]methanone]

More lines, now with the values behind:

Row | Compound | EC50 [1, 3] [nM] | EC50 [1, 4] [nM] | EC50 [2] [nM]
15 | Cc1cc(-c2onc(C)c2C(=O)N2CC[C@]3(Cc4ccccc4CN3)[C@H](O)C2)no1 [Example 183, (3′,5-dimethyl-[3,5′-biisoxazol]-4′-yl)((3R,3′R)-3′-hydroxy-1,4-dihydro-2H-spiro[isoquinoline-3,4′-piperidin]-1′-yl)methanone] | 7940 | 4.87 | 297
16 | Cc1cc2nnc(C(=O)N3CC[C@]4(Cc5ccccc5CN4)[C@H](O)C3)c(C)n2n1 [Example 184, (4,7-dimethylpyrazolo[5,1-c][1,2,4]triazin-3-yl)((3R,3′R)-3′-hydroxy-1,4-dihydro-2H-spiro[isoquinoline-3,4′-piperidin]-1′-yl)methanone] | 21900 | 16.2 | 995
17 | O=C(c1nccn2nccc12)N1CC[C@]2(Cc3ccccc3CN2)[C@H](O)C1 [Example 185, ((3R,3′R)-3′-hydroxy-1,4-dihydro-2H-spiro[isoquinoline-3,4′-piperidin]-1′-yl)(pyrazolo[1,5-a]pyrazin-4-yl)methanone] | 26900 | 24 | 1540
18 | Cc1ccc(C(=O)N2CC[C@]3(Cc4ccccc4CN3)[C@H](O)C2)c(-n2nccn2)n1 [Example 186, ((3R,3′R)-3′-hydroxy-1,4-dihydro-2H-spiro[isoquinoline-3,4′-piperidin]-1′-yl)(6-methyl-2-(2H-1,2,3-triazol-2-yl)pyridin-3-yl)methanone] | 501 | 0.241 | 71.2
19 | O=C(c1ccnc(-n2cnnn2)c1)N1CC[C@]2(Cc3ccccc3CN2)[C@H](O)C1 [Example 187, (2-(1H-tetrazol-1-yl)pyridin-4-yl)((3R,3′R)-3′-hydroxy-1,4-dihydro-2H-spiro[isoquinoline-3,4′-piperidin]-1′-yl)methanone] | 26900 | 75.9 | 4280
20 | O=C(c1ccc2nccn2n1)N1CC[C@]2(Cc3ccccc3CN2)[C@H](O)C1 [Example 188, ((3R,3′R)-3′-hydroxy-1,4-dihydro-2H-spiro[isoquinoline-3,4′-piperidin]-1′-yl)(imidazo[1,2-b]pyridazin-6-yl)methanone] | 74100 | 144 | 3320
21 | O=C(c1ccnc2ncnn12)N1CC[C@]2(Cc3ccccc3CN2)[C@H](O)C1 [Example 189, [1,2,4]triazolo[1,5-a]pyrimidin-7-yl((3R,3′R)-3′-hydroxy-1,4-dihydro-2H-spiro[isoquinoline-3,4′-piperidin]-1′-yl)methanone] | 66100 | 30.2 | 3500
22 | O=C(c1c[nH]c2ncncc12)N1CC[C@]2(Cc3ccccc3CN2)[C@H](O)C1 [Example 190, [(3R,3′R)-3′-hydroxy-1,4-dihydro-1′H,2H-spiro[isoquinoline-3,4′-piperidin]-1′-yl](1H-pyrrolo[2,3-d]pyrimidin-5-yl)methanone] | – | 343 | ≥ 10000
23 | Cc1nn(C)c2[nH]c(C(=O)N3CC[C@]4(Cc5ccccc5CN4)[C@H](O)C3)cc(=O)c12 [Example 191, 6-{[(3R,3′R)-3′-hydroxy-1,4-dihydro-1′H,2H-spiro[isoquinoline-3,4′-piperidin]-1′-yl]carbonyl}-1,3-dimethyl-1,7-dihydro-4H-pyrazolo[3,4-b]pyridin-4-one] | – | 2880 | ≥ 10000
24 | O=C(c1ccc(-n2cnnn2)cn1)N1CC[C@]2(Cc3ccccc3CN2)[C@H](O)C1 [Example 192, [(3R,3′R)-3′-hydroxy-1,4-dihydro-1′H,2H-spiro[isoquinoline-3,4′-piperidin]-1′-yl][5-(1H-tetrazol-1-yl)-2-pyridinyl]methanone] | 34700 | 112 | ≥ 10000
25 | Cc1ccnc2nc(C(=O)N3CC[C@]4(Cc5ccccc5CN4)[C@H](O)C3)nn12 [Example 193, [(3R,3′R)-3′-hydroxy-1,4-dihydro-1′H,2H-spiro[isoquinoline-3,4′-piperidin]-1′-yl](7-methyl[1,2,d]triazolo[1,5-a]pyrimidin-2-yl)methanone] | – | 27000 | 9610
